Earlier results on 3 compounds are cited in patent US9301985B2, “Therapeutic agent for dementia” (Kibun Foods Inc., priority 2013, dated 2016).

In series [1] the test system is cerebrovascular dementia model and Alzheimer's disease model. The conditions noted are these: rat; cerebrovascular dementia model (vessel artificially clogged) and Alzheimer's disease model.
Series [2] has as its system nerve growth factor (NGF). To be noted: erinacine E derived from Hericium erinaceum.
For series [3], the target named is k-opioid receptor (Homo sapiens, UniProt P41145). The conditions noted are these: erinacine E derived from Hericium ramosum.
Sequence of k-opioid receptor (P41145 whole entry): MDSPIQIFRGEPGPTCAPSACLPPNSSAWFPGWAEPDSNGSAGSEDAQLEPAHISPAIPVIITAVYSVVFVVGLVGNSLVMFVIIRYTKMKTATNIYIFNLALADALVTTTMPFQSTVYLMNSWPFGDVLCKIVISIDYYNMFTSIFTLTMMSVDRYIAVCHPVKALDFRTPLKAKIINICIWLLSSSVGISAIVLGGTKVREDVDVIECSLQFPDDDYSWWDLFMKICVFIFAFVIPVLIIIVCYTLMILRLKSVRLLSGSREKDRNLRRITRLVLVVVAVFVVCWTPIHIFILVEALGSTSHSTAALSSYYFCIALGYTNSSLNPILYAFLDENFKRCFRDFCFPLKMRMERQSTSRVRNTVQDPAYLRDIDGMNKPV

With `CCCCCCCCCCCCCCCC(=O)OCc1cc(OC)c(C/C=C(\C)CC(=O)C=C(C)C)c(O)c1C=O` [hericenone C], the “memory retention and learning ability” value in series [1] is “apparent improvement”. On to `CC(C)C1=C2C3CC=C4C(O)C5(O)COC6OC(C4C6(O)C5O)C3(C)CCC2(C)CC1` (stereo not shown) [erinacine E], for which the “nerve growth factor (NGF) production” value in series [2] is “action to accelerate”. Moreover, in series [3], the “activity at k-opioid receptor” value was “agonist”. On to `CC(C)C1=C2C3=CC=C(C=O)C[C@H](O[C@@H]4OC[C@@H](O)[C@H](O)[C@H]4O)[C@]3(C)CC[C@@]2(C)CC1` [erinacine A], for which, in series [1], the “memory retention and learning ability” value is “apparent improvement”.
